Reference: US11667649B2, “Heteroaromatic macrocyclic ether chemotherapeutic agents” (Nuvalent, Inc., priority 2020, dated 2023)

System: TPM3-NTRK1-wt IC50 / primary target (e.g. CD74-ROS1-wt) IC50, Ba/F3 cells
Assay: Cell assay TRKA selectivity (TRKA potency divided by primary target potency)
Type: cell-based
Settings: for TPM3-NTRK1-wt/CD74-ROS1-G2032R: TRKA selectivity ratio: TPM3-NTRK1-wt IC50 / CD74-ROS1-G2032R IC50, Ba/F3 cells; for TPM3-NTRK1-wt/CD74-ROS1-wt: TRKA selectivity ratio: TPM3-NTRK1-wt IC50 / CD74-ROS1-wt IC50, Ba/F3 cells; for TPM3-NTRK1-wt/EML4-ALK-L1196M-G1202R: TRKA selectivity ratio: TPM3-NTRK1-wt IC50 / EML4-ALK-L1196M-G1202R IC50, Ba/F3 cells; for TPM3-NTRK1-wt/EML4-ALK-wt: TRKA selectivity ratio: TPM3-NTRK1-wt IC50 / EML4-ALK-wt IC50, Ba/F3 cells
How it was run: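 Ratio of TRKA to primary-target cellular IC50 (e.g. TPM3-NTRK1-wt/CD74-ROS1-wt), grouped into bins A >30, B >10, C ≥1, D <1. Each IC50 came from engineered Ba/F3 fusion lines grown without IL-3, dosed for 72 h and read as CellTiter-Glo luminescence, with a four-parameter logistic fit.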

| Compound | TPM3-NTRK1-wt/CD74-ROS1-G2032R | TPM3-NTRK1-wt/CD74-ROS1-wt | TPM3-NTRK1-wt/EML4-ALK-L1196M-G1202R | TPM3-NTRK1-wt/EML4-ALK-wt |
| --- | --- | --- | --- | --- |
| Cc1nn(CC(F)F)c2c1Cc1cn(C)nc1-c1ccc(F)cc1[C@@H](C)Oc1cc-2cnc1N [Example 79, (19R)-3-(2,2-difluoroethyl)-16-fluoro-5,10,19-trimethyl-20-oxa-3,4,10,11,23-pentaazapentacyclo[19.3.1.0^2,^6.0^8,^12.0^13,^18]pentacosa-1(24),2(6),4,8,11,13,15,17,21(25),22-decaen-22-amine] | A (bin A for very high selectivity, ratio>30-fold) | A (bin A for very high selectivity, ratio>30-fold) | A (bin A for very high selectivity, ratio>30-fold) | A (bin A for very high selectivity, ratio>30-fold) |
| CCn1ncc2c1-c1cnc(N)c(c1)O[C@H](C)c1cc(F)ccc1-n1nc(Br)cc1C2 [Example 80, (19R)-10-bromo-3-ethyl-16-fluoro-19-methyl-20-oxa-3,4,11,12,23-pentaazapentacyclo[19.3.1.0^2,^6.0^8,^12.0^13,^18]pentacosa-1(24),2(6),4,8,10,13,15,17,21(25),22-decaen-22-amine] | A (bin A for very high selectivity, ratio>30-fold) | A (bin A for very high selectivity, ratio>30-fold) | B (bin B for high selectivity, ratio>10-fold) | A (bin A for very high selectivity, ratio>30-fold) |
| CCn1nc(C)c2c1-c1cnc(N)c(c1)O[C@H](C)c1cc(F)ccc1-c1nn(C)cc1C2 [Example 81, (19R)-3-ethyl-16-fluoro-5,10,19-trimethyl-20-oxa-3,4,10,11,23-pentaazapentacyclo[19.3.1.0^2,^6.0^8,^12.0^13,^18]pentacosa-1(24),2(6),4,8,11,13,15,17,21(25),22-decaen-22-amine] | A (bin A for very high selectivity, ratio>30-fold) | A (bin A for very high selectivity, ratio>30-fold) | B (bin B for high selectivity, ratio>10-fold) | A (bin A for very high selectivity, ratio>30-fold) |
| Cc1nc2c(s1)Cc1c(c(C#N)nn1C)-c1cnc(N)c(c1)O[C@H](C)c1cc(F)ccc1-2 [Example 82, (19R)-22-amino-16-fluoro-5,10,19-trimethyl-20-oxa-9-thia-4,5,11,23-tetraazapentacyclo[19.3.1.0^2,^6.0^8,^12.0^13,^18]pentacosa-1(24),2(6),3,8(12),10,13,15,17,21(25),22-decaene-3-carbonitrile] | A (bin A for very high selectivity, ratio>30-fold) | A (bin A for very high selectivity, ratio>30-fold) | B (bin B for high selectivity, ratio>10-fold) | A (bin A for very high selectivity, ratio>30-fold) |
| C[C@H]1Oc2cc(cnc2N)-c2c(c(Cl)nn2CC(F)F)Cc2cn(C)nc2-c2ccc(F)cc21 [Example 83, (19R)-5-chloro-3-(2,2-difluoroethyl)-16-fluoro-10,19-dimethyl-20-oxa-3,4,10,11,23-pentaazapentacyclo[19.3.1.0^2,^6.0^8,^12.0^13,^18]pentacosa-1(24),2(6),4,8,11,13,15,17,21(25),22-decaen-22-amine] | A (bin A for very high selectivity, ratio>30-fold) | A (bin A for very high selectivity, ratio>30-fold) | A (bin A for very high selectivity, ratio>30-fold) | A (bin A for very high selectivity, ratio>30-fold) |
| C[C@H]1Oc2cc(cnc2N)-c2c(cnn2CC(F)F)Cc2cc(C(F)(F)F)nn2-c2ccc(F)cc21 [Example 84, (19R)-3-(2,2-difluoroethyl)-16-fluoro-19-methyl-10-(trifluoromethyl)-20-oxa-3,4,11,12,23-pentaazapentacyclo[19.3.1.0^2,^6.0^8,^12.0^13,^18]pentacosa-1(24),2(6),4,8,10,13,15,17,21(25),22-decaen-22-amine] | A (bin A for very high selectivity, ratio>30-fold) | A (bin A for very high selectivity, ratio>30-fold) | C (bin C for moderate selectivity, ratio≥1) | A (bin A for very high selectivity, ratio>30-fold) |
| C[C@H]1Oc2cc(cnc2N)-c2c(CC(F)F)noc2Cc2cn(C)nc2-c2ccc(F)cc21 [Example 85, (19R)-3-(2,2-difluoroethyl)-16-fluoro-10,19-dimethyl-5,20-dioxa-4,10,11,23-tetraazapentacyclo[19.3.1.0^2,^6.0^8,^12.0^13,^18]pentacosa-1(24),2(6),3,8,11,13,15,17,21(25),22-decaen-22-amine] | A (bin A for very high selectivity, ratio>30-fold) | A (bin A for very high selectivity, ratio>30-fold) | C (bin C for moderate selectivity, ratio≥1) | A (bin A for very high selectivity, ratio>30-fold) |
| CCn1ncc2c1-c1cnc(N)c(c1)O[C@H](C)c1cc(F)ccc1-c1nn(C(F)F)cc1C2 [Example 86, (19R)-10-(difluoromethyl)-3-ethyl-16-fluoro-19-methyl-20-oxa-3,4,10,11,23-pentaazapentacyclo[19.3.1.0^2,^6.0^8,^12.0^13,^18]pentacosa-1(24),2(6),4,8,11,13,15,17,21(25),22-decaen-22-amine] | B (bin B for high selectivity, ratio>10-fold) | A (bin A for very high selectivity, ratio>30-fold) | D (bin D for low selectivity, ratio<1) | C (bin C for moderate selectivity, ratio≥1) |
| CCn1ncc2c1-c1cnc(N)c(c1)O[C@H](C)c1cc(F)ccc1-c1nn(C)c(C)c1C2 [Example 87, (19R)-3-ethyl-16-fluoro-9,10,19-trimethyl-20-oxa-3,4,10,11,23-pentaazapentacyclo[19.3.1.0^2,^6.0^8,^12.0^13,^18]pentacosa-1(24),2(6),4,8,11,13,15,17,21(25),22-decaen-22-amine] | A (bin A for very high selectivity, ratio>30-fold) | A (bin A for very high selectivity, ratio>30-fold) | C (bin C for moderate selectivity, ratio≥1) | A (bin A for very high selectivity, ratio>30-fold) |
| CCc1snc2c1-c1cnc(N)c(c1)O[C@H](C)c1cc(F)ccc1-c1nn(C)cc1C2 [Example 88, (19R)-3-ethyl-16-fluoro-10,19-dimethyl-20-oxa-4-thia-5,10,11,23-tetraazapentacyclo[19.3.1.0^2,^6.0^8,^12.0^13,^18]pentacosa-1(24),2,5,8,11,13,15,17,21(25),22-decaen-22-amine] | B (bin B for high selectivity, ratio>10-fold) | A (bin A for very high selectivity, ratio>30-fold) | C (bin C for moderate selectivity, ratio≥1) | A (bin A for very high selectivity, ratio>30-fold) |
| CCn1ncc2c1-c1cnc(N)c(c1)OCc1cc(F)ccc1-c1nc(C)sc1C2 [Example 89, 3-ethyl-16-fluoro-10-methyl-20-oxa-9-thia-3,4,11,23-tetraazapentacyclo[19.3.1.0^2,^6.0^8,^12.0^13,^18]pentacosa-1(24),2(6),4,8(12),10,13,15,17,21(25),22-decaen-22-amine] | A (bin A for very high selectivity, ratio>30-fold) | A (bin A for very high selectivity, ratio>30-fold) | B (bin B for high selectivity, ratio>10-fold) | A (bin A for very high selectivity, ratio>30-fold) |
| CCc1noc2c1-c1cnc(N)c(c1)O[C@H](C)c1cc(F)cc(F)c1-c1nn(C)cc1C2 [Example 90, (19R)-3-ethyl-14,16-difluoro-10,19-dimethyl-5,20-dioxa-4,10,11,23-tetraazapentacyclo[19.3.1.0^2,^6.0^8,^12.0^13,^18]pentacosa-1(24),2(6),3,8,11,13,15,17,21(25),22-decaen-22-amine] | A (bin A for very high selectivity, ratio>30-fold) | A (bin A for very high selectivity, ratio>30-fold) | C (bin C for moderate selectivity, ratio≥1) | A (bin A for very high selectivity, ratio>30-fold) |
| C[C@H]1Oc2cc(cnc2N)-c2c(cnn2CC2CC2)Cc2cc(C(F)(F)F)nn2-c2ccc(F)cc21 [Example 91, (19R)-3-(cyclopropylmethyl)-16-fluoro-19-methyl-10-(trifluoromethyl)-20-oxa-3,4,11,12,23-pentaazapentacyclo[19.3.1.0^2,^6.0^8,^12.0^13,^18]pentacosa-1(24),2(6),4,8,10,13,15,17,21(25),22-decaen-22-amine] | A (bin A for very high selectivity, ratio>30-fold) | A (bin A for very high selectivity, ratio>30-fold) | A (bin A for very high selectivity, ratio>30-fold) | A (bin A for very high selectivity, ratio>30-fold) |
| CCn1ncc2c1-c1cnc(N)c(c1)OCc1cc(F)ccc1-n1nc(C(F)(F)F)cc1C2 [Example 92, 3-ethyl-16-fluoro-10-(trifluoromethyl)-20-oxa-3,4,11,12,23-pentaazapentacyclo[19.3.1.0^2,^6.0^8,^12.0^13,^18]pentacosa-1(24),2(6),4,8,10,13,15,17,21(25),22-decaen-22-amine] | A (bin A for very high selectivity, ratio>30-fold) | A (bin A for very high selectivity, ratio>30-fold) | C (bin C for moderate selectivity, ratio≥1) | C (bin C for moderate selectivity, ratio≥1) |
